Assay results reported in patent publication US8133861B2, “Systemic purine administration: modulating axonal outgrowth of central nervous system neurons” (Alseres Pharmaceuticals, Inc., priority 2008, dated 2012).
“Also recorded” adds a separate entry of the source.

Tests used:
[1] = Inosine prototype formulations: approximate potency, solubility and precipitation; assay type: physicochemical
Experimental: A number of inosine formulations were examined. Preparatory steps were as follows:
Inosine protype formulations were prepared by adding inosine drug substance to tare vials containing about 3-5 mL of aqueous solutions containing various pharmaceutical excipients in various concentrations. […] Common I.V. solutions such as phosphate buffered saline, normal saline and 5% dextrose in water are noted.
Megulmine is known to function both as a solubilizing and alkalizing agent, thus precluding the need for a buffering species which would unfavorably increase ionic strength in the formulation.
The composition of each formulation is provided in Table I. The pH of the formulation is reported for those formulations for which it was tested.

[2] = Plasma inosine during 2-hr intravenous inosine infusion in rats (LC/MS/MS); assay type: in vivo, rat; conditions: for clearance: male, Sprague-Dawley, plasma, iv, infusion rate/steady-state concentration; for clearance / Plasma inosine concentration, maximal value / Steady-state mean plasma inosine level: rat
Experimental: (§1) Two groups of three rats were dosed intravenously with a total of 4 different concentrations of inosine and vehicle, providing within-subjects comparisons. Rats were anesthetized and each was surgically implanted above the medial prefrontal cortex (A-P +3.2 and M-L +1.0 from Bregma, D-V −2.0 from the skull surface) with an intracerebral guide cannula that was replaced after three days by a microdialysis probe. The microdialyses probes were continually flushed with artificial cerebrospinal fluid (aCSF). Catheters were inserted into the jugular vein for inosine dosing and into the femoral artery for blood collection.
(§2) Inosine formulated in aqueous bicarbonate buffer (pH 9.2) was administered by intravenous infusion for up to two hours to two groups of rats (N=3 per group) and the microdialysis probes were perfused with aCSF at a rate of 0.015 mL/minute. One group received nominal dose rates of 0 (vehicle), 100, and 300 mg/kg/hour, and the other group received nominal dose rates of 0, 500, and 700 mg/kg/hour. Each nominal infusion rate was 10 mL/kg/hour and was separated by a 2-day washout period.
(§3) Blood samples and brain microdialysates were collected prior to each dose to establish basal concentrations of inosine, and for a period of 2 hrs after each dose to determine the percent of change (increase, decrease, or none) relative to basal. Microdialysate and blood plasma inosine concentrations were measured using an LC/MS/MS assay. The lower limit of quantitation of the rat plasma analysis and the CNS microdialysate was 0.25 ng/mL.
(§4) All study subjects were dosed via JVC catheters without handling. Prior to collecting pre-dose microdialysates, glass vials were loaded with the appropriate drug solution and connected to an Empis system. All rats received the doses of inosine they were intended to receive, as the infusion rate was ˜50 μl/min over the 2 hr dosing period. Two days later, all rats received the doses of inosine they were intended to receive, as the infusion rate was ˜50 μl/min over the 2 hr dosing period. All rats then received reduced doses of inosine, as the infusion rat was reduced to ˜40 μl/min over a 2 hr dosing period.
(§5) Samples of CNS microdialysate (0.03 mL) and arterial blood (0.15 mL) were taken for analysis of inosine concentration before infusion, and at specified times after the start of the infusions (20, 40, 60, 80, and 120 minutes).
(§6) Changes in inosine concentrations (percent of baseline) were determined by dividing a particular post-dose inosine concentration (ng/mL) by the average of 4 pre-dose (baseline) inosine concentrations (ng/mL) and multiplying this value by 100%. Where plasma inosine (μg/mL) values appeared to reach steady-state by inspection of the last three time points, approximately values for clearance (L/kg/hour) were obtained from the relationship, clearance=infusion rate (mg/kg/hour)/steady-state concentration (mg/L). Mean percent of baseline changes in inosine concentrations were plotted for each treatment condition.

[3] = Brain (medial prefrontal cortex) microdialysate inosine during intravenous inosine infusion in rats; assay type: in vivo, rat; conditions: for CNS microdialysate inosine, percent of baseline / CNS microdialysate inosine, maximal increase (percent of baseline) / time to maximal increase of CNS microdialysate inosine: rat
Experimental: as §1, §2, §3
The subjects were naïve, male, Sprague-Dawley rats procured for this study from Harlan Spraque Dawley, Inc. (Indianapolis, Ind.). All rats selected for surgeries were quarantined, inspected and deemed acceptable for surgery by technicians qualified to make this assessment. Intracerebral guide cannulae were surgically implanted above the medial prefrontal cortex (mPFC). Rats were provided with a single dose of analgesic immediately after surgery to alleviate discomfort. Animals were inspected frequently during post-surgical recovery. After 3 days, the stylet in the intracerebral guide cannula was replaced with a microdialysis probe.
as §4, §5
Changes in inosine concentrations are expressed as percent of baseline in order to compare changes in inosine concentrations between treatments.
as §6

[4] = test system: rat hemisection model of spinal cord injury; experiment: Rat dorsal hemisection model of spinal cord injury, BBB score of locomotor function; assay type: in vivo; conditions: approximately 2 mg/kg/hr
Experimental: This example considers intravenous infusion of inosine in rodent model of acute spinal cord injury. Rats were anesthetized and each was subjected to laminectomy in the thoracic region of the spinal cord, followed by dorsal hemisection of the spinal cord that included severance of the cortical spinal tract as a model of spinal cord injury (SCI). These rats were divided into two groups: one group was dosed by continuous intravenous infusion of 70 mg/mL (261 mM) inosine formulated in 0.1% sodium bicarbonate solution, pH approximately 9.2, for four weeks, and the other group was dosed by continuous intravenous infusion with 0.1% sodium bicarbonate vehicle control for four weeks. The infusion rate was 10 microliters per hour for inosine (approximately 2 mg/kg/hr) and vehicle dosing, and the infusions were started immediately after the SCI. In this regard it is noted that dosing at 2 mg/kg/hr represents a dose of about 48 mg/kg/day. In a 70 kg subject this is equivalent to about 3-4 g/day. Attention is drawn to daily doses from about 1 g/day to about 10 gm/day with attention being drawn to doses of about 2 g/day and about 5 day.
Rats were evaluated one day post-SCI to verify completeness of the lesion, and then weekly for functional status by assessment using the Basso-Beattie-Bresnahan (BBB) score of locomotor function as judged by hind-limb function and forelimb:hind-limb coordination. […]

[5] = test system: central nervous system injury; experiment: Treatment of a subject with central nervous system injury with inosine (Examples 5, 9, 13); assay type: in vivo
Experimental: A subject with central nervous system injury, is treated with an intravenous infusion of a solution of inosine (50 mM) and NaCl (0.15M) at a rate of 1 g/kg/day. […] A subject with central nervous system injury, is treated with a subcutaneous injection of a solution of inosine (50 mM) and NaCl (0.15M) at a rate of 1 g/kg/day. […] A subject with central nervous system injury is treated with intravenous infusion of a solution of inosine in a formulation of 0.1% sodium bicarbonate 70 mg/mL inosine, pH9.2. The 250 ml of the inosine formulation is infused over a two hour period. This procedure is repeated for 14 days.

stroke = experiment: Treatment of a subject with an onset of stroke with inosine (Examples 6, 10); assay type: in vivo; conditions: inosine (50 mM) and NaCl (0.15M), 1 g/kg/day
Experimental: (§7) A subject with an onset of stroke, is treated with an intravenous infusion of a solution of inosine (50 mM) and NaCl (0.15M) at a rate of 1 g/kg/day. […] A subject with an onset of stroke, is treated with an subcutaneous injection of a solution of inosine (50 mM) and NaCl (0.15M) at a rate of 1 g/kg/day.

spinal cord injury = experiment: Treatment of a subject with a spinal cord injury with inosine (Examples 7, 11); assay type: in vivo; conditions: inosine (50 mM) and NaCl (0.15M), 1 g/kg/day
Experimental: as §7, with “a spinal cord injury,” for “an onset of stroke,”

traumatic brain injury = experiment: Treatment of a subject with a traumatic brain injury with inosine (Examples 8, 12); assay type: in vivo; conditions: inosine (50 mM) and NaCl (0.15M), 1 g/kg/day
Experimental: A subject with a traumatic brain injury, is treated with an intravenous infusion of a solution of inosine (50 mM) and NaCl (0.15M) at a rate of 1 g/kg/day. […] A subject with a traumatic brain injury, is treated with subcutaneous injection of a solution of inosine (50 mM) and NaCl (0.15M) at a rate of 1 g/kg/day.

inosine solubility ([1]; high pH environments): greatly enhanced
inosine solubility ([1]; higher concentrations of saline solutions): reduced solubility
clearance ([2]; i.v. infusion 300 mg/kg/hour): 13.1 L/h/kg
clearance ([2]; i.v. infusion 500 mg/kg/hour): 15.4 L/h/kg
Plasma inosine concentration, maximal value ([2]; i.v. infusion 100 mg/kg/hr): ≤ 7.2 µg/mL
Steady-state mean plasma inosine level ([2]; i.v. infusion 300 mg/kg/hour): 22.8 µg/mL
Plasma inosine concentration, maximal value ([2]; i.v. infusion 300 mg/kg/hr): ≤ 26 µg/mL
Steady-state mean plasma inosine level ([2]; i.v. infusion 500 mg/kg/hour): 32.4 µg/mL
Plasma inosine concentration, maximal value ([2]; i.v. infusion 500 mg/kg/hr): ≤ 45 µg/mL
Plasma inosine concentration, maximal value ([2]; i.v. infusion 700 mg/kg/hr): ≤ 146 µg/mL
inosine plasma levels ([2]; rats, i.v., about 800 to 1000 mg/kg over about two hours): significant rise
CNS microdialysate inosine, percent of baseline ([3]; i.v. infusion 100 mg/kg/hour): 113-146%
CNS microdialysate inosine, percent of baseline ([3]; i.v. infusion 300 mg/kg/hour): 96-116%
CNS microdialysate inosine, maximal increase (percent of baseline) ([3]; i.v. infusion 500 mg/kg/hour): 526-632%
time to maximal increase of CNS microdialysate inosine ([3]; i.v. infusion 500 mg/kg/hr): ≤ 45 min
CNS microdialysate inosine, maximal increase (percent of baseline) ([3]; i.v. infusion 700 mg/kg/hour): 574-653%
time to maximal increase of CNS microdialysate inosine ([3]; i.v. infusion 700 mg/kg/hr): ≤ 45 min
inosine levels above background ([3]; rats, i.v., 160-200 mg/kg/2 hrs): approximately 170%
inosine levels above background ([3]; rats, i.v., 480-600 mg/kg/2 hrs): approximately 170%
interstitial inosine as compared with the baseline/predose concentrations ([3]; rats, i.v., about 800 to 1000 mg/kg over about two hours (Formulation 80 diluted to 50 mg/mL)): approximately 500%
Compound: OC[C@H]1O[C@@H](n2cnc3c(O)ncnc32)[C@H](O)[C@@H]1O [inosine]
functional outcome ([4]; continuous i.v. infusion, four weeks, P<0.01 weeks one and two, P<0.001 weeks three and four vs. vehicle): improves functional outcome; also recorded: continual or sustained improvement
BBB scores ([4]; three to four weeks post-SCI, continuous i.v. infusion 70 mg/mL, maximal score 21): near maximal possible values
neurological deficit ([5]; Example 5: intravenous infusion, inosine (50 mM) and NaCl (0.15M), 1 g/kg/day): Amelioration of the neurological deficit
neurological deficit ([5]; Example 9: subcutaneous injection, inosine (50 mM) and NaCl (0.15M), 1 g/kg/day): Amelioration of the neurological deficit
neurological deficit ([5]; Example 13: intravenous infusion, 0.1% sodium bicarbonate 70 mg/mL inosine pH9.2, 250 ml over two hours, 14 days): Amelioration of the neurological deficit
neurological deficit (stroke; Example 6: intravenous infusion): Amelioration of the neurological deficit
neurological deficit (stroke; Example 10: subcutaneous injection): Amelioration of the neurological deficit
neurological deficit (spinal cord injury; Example 7: intravenous infusion): Amelioration of the neurological deficit
neurological deficit (spinal cord injury; Example 11: subcutaneous injection): Amelioration of the neurological deficit
neurological deficit (traumatic brain injury; Example 8: intravenous infusion): Amelioration of the neurological deficit
neurological deficit (traumatic brain injury; Example 12: subcutaneous injection): Amelioration of the neurological deficit
